This note sets out measurements from patent publication US8664214B2, “Small molecule potentiators of metabotropic glutamate receptors I” (AbbVie Deutschland GmbH & Co. KG, priority 2010, dated 2014).

pEC50: −log10 of the molar value.

T1 sequence (Q14416 19-872): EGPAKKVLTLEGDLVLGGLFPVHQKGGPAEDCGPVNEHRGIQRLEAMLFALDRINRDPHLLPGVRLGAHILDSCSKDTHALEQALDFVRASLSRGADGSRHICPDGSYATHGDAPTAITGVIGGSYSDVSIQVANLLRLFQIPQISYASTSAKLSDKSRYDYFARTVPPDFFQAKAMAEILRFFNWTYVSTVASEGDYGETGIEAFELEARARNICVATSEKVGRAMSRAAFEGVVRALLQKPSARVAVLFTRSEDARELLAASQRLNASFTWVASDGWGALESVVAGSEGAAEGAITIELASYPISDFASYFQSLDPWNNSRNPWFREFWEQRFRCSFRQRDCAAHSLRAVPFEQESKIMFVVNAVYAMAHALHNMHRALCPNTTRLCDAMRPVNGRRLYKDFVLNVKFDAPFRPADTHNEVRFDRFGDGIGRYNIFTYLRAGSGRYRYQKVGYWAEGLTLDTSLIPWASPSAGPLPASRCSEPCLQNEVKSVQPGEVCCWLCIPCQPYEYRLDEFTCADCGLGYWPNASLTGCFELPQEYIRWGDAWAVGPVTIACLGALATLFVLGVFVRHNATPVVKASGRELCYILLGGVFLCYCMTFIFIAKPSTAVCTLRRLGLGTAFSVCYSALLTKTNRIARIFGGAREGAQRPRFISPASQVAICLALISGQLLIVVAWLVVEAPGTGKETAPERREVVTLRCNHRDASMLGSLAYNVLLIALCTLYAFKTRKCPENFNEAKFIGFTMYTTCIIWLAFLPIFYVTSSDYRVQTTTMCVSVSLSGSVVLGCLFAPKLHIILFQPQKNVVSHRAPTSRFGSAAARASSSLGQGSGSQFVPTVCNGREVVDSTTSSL

This assay has as its target T1, human mGlu2 receptor (Homo sapiens, UniProt Q14416).
T1 construct: V5/His (named only as part of the vector); expressed in transfected cells; host or cells: HEK293
Kind of assay: FLIPR intracellular Ca2+ assay, potentiation of 1 μM glutamate in HEK293 cells expressing hmGlu2, rGLAST and Galpha16. In kind it is cell-based. To be noted: HEK293 hmGlu2 clone. An excerpt: The compounds of the present invention can be tested e.g. by evaluating intracellular Ca^2+ concentrations in cells permanently expressing human mGlu receptor, the rat glutamate transporter rGLAST and the Galpha16 subunit of the G-protein complex under standard conditions in a fluorometric imaging plate reader (FLIPR, Molecular Devices, Union City, Calif. 94587, USA) by measuring the response of the cells to a test compound in the absence of presence of glutamate. The FLIPR assay is a common functional assay to monitor native or recombinant Galphaq-coupled receptors, and native or recombinant receptors normally linked to other G-protein signalling cascades, which are coupled to calcium through co-expression of an alpha subunit of a promiscuous or chimeric G-protein. In the assay the increase of intracellular calcium is measured through a calcium-dependent fluorescent dye (e.g. Fluo-4 AM) in the FLIPR instrument.
For the purpose of the present study, a cell line permanently expressing a human mGlu receptor, such as the mGlu2 receptor, the rat glutamate transporter rGLAST and the GalphaG16 may be generated by transfection as described in the examples. For selection of a suitable cell clone and also the subsequent measurements, the selected clone the cells will be plated on suitable multiwell plates in a suitable medium (e.g. DMEM Glutamax (GIBCO # 21885-025)/10% dialyzed FCS). Cells may be selected by gentamycin treatment as described in the examples. Cells will then be loaded with a suitable Ca^2+ sensitive fluorescence dye, e.g. with 2 μM Fluo-4 AM (Molecular Probes, F14201). Cells will then be washed with a suitable buffer (e.g. HEPES) and the thus treated plates will be measured in a fluorometric imaging plate reader (e.g. FLIPR, Molecular Devices, Union City, Calif. 94587, USA).
The compounds of the present invention were tested in the above-described FLIPR assay using the selected cell clone. Increased intracellular calcium levels were quantified following addition of test compound (agonism), as well as following addition of a submaximal concentration of glutamate (potentiation).
For the determination of the effect of the test compound by itself (agonism) or by increasing the response to a submaximal concentration (e.g. 1 μM) of glutamate (potentiation), the resulting signal is determined by subtraction of the background fluorescence from the maximal fluorescent peak height of the respective response. In the FLIPR instrument the compound is given to the cell and its fluorescence response quantified by the FLIPR instrument (agonism). The concentration at which the compound exerts half its maximal effect is named the ‘effective concentration 50’ or ‘EC50’. The maximal effect induced by the test substance is normalized to the maximal effect exerted by 100 μM glutamate (set at 100%).
After addition of the test compound to the plate, a submaximal concentration of glutamate (e.g. 1 μM glutamate) will be added. A potentiator enhances the response of the receptor to glutamate. The response to glutamate in the presence of test compound is quantified. The concentration at which the test compound is able to exert half its maximal potentiation effect to glutamate is named the ‘EC50’. The maximal response to the submaximal concentration of glutamate (e.g. 1 micromolar glutamate) in the presence of test compound is normalized to the maximal effect exerted by 100 micromolar glutamate (set at 100%). Least squares curve fitting with a four-parameter equation is then applied to the resulting dose-response curve to determine the resulting EC50 values (Graph Pad Prism).
For the purpose of the present study, a cell line permanently expressing the human mGlu2 receptor, the rat glutamate transporter rGLAST and the alpha subunit of G16 was generated by transfection. […]
The pEC50 is the negative decadic logarithm of the EC50, by convention in mol/L. For the compound `CCCCN1Cc2cc(NCc3c(C)ccnc3Cl)ccc2C1=O` [Example 33, 2-butyl-5-{[(2-chloro-4-methylpyridin-3-yl)methyl]amino}-2,3-dihydro-1H-isoindol-1-one], the pEC50 is 5.70 to 6.30.

With `CCCCN1Cc2cc(NCc3cnccc3Nc3ccccc3)ccc2C1=O` [Example 19, 2-butyl-5-((4-(phenylamino)pyridin-3-yl)methylamino)isoindolin-1-one], the pEC50 was 5.70 to 6.30.

For the compound `CCCCN1Cc2cc(NCc3cnccc3C(F)(F)F)ccc2C1=O` [Example 14, 2-butyl-5-((4-(trifluoromethyl)pyridin-3-yl)methylamino)isoindolin-1-one], the pEC50 was greater than 6.30.

As for `CCCCN1Cc2cc(NCc3cnccc3N3CCOCC3)ccc2C1=O` [Example 25, 2-butyl-5-({[4-(morpholin-4-yl)pyridin-3-yl]methyl}amino)-2,3-dihydro-1H-isoindol-1-one], the pEC50 was 5.70 to 6.30.

As to `CCCN1Cc2cc(OCc3cnccc3-c3ccccc3)ccc2C1=O` [Example 6, 5-(4-Phenyl-pyridin-3-ylmethoxy)-2-propyl-2,3-dihydro-isoindol-1-one], the pEC50 was greater than 6.30.

With `CCCCN1Cc2cc(OCc3c(-c4ccccc4)cc(C)nc3C)ccc2C1=O` [Example 1, 2-butyl-5-((2,6-dimethyl-4-phenylpyridin-3-yl)methoxy)isoindolin-1-one], the pEC50 was greater than 6.30.

Take `CCCCN1Cc2cc(NCc3cnccc3NC(=O)C(C)(C)C)ccc2C1=O` [Example 43, N-(3-((2-butyl-1-oxoisoindolin-5-ylamino)methyl)pyridin-4-yl)pivalamide]: the pEC50 was 5.70 to 6.30.

Take `CCCCN1Cc2cc(NCc3cccnc3Cl)ccc2C1=O` [Example 38, 2-butyl-5-{[(2-chloropyridin-3-yl)methyl]amino}-2,3-dihydro-1H-isoindol-1-one]: the pEC50 is 5.00 to 5.70.

With `CCCCN1Cc2cc(NCc3cnccc3-c3ccccc3)ccc2C1=O` [Example 15, 2-butyl-5-((4-phenylpyridin-3-yl)methylamino)isoindolin-1-one], the pEC50 is greater than 6.30.

For the compound `CCCCN1Cc2cc(NCc3c(Cl)ccnc3Cl)ccc2C1=O` [Example 35, 2-butyl-5-{[(2,4-dichloropyridin-3-yl)methyl]amino}-2,3-dihydro-1H-isoindol-1-one], the pEC50 is greater than 6.30.

With `CCCCN1Cc2cc(NCc3ccc(OC)nc3Cl)ccc2C1=O` [Example 37, 2-butyl-5-{[(2-chloro-6-methoxypyridin-3-yl)methyl]amino}-2,3-dihydro-1H-isoindol-1-one], the pEC50 is 5.70 to 6.30.

For `CCCN1Cc2cc(OCc3cnccc3Oc3ccccc3)ccc2C1=O` [Example 3, 5-((4-phenoxypyridin-3-yl)methoxy)-2-propylisoindolin-1-one], the pEC50 is 5.70 to 6.30.

For `O=C1c2c(Cl)cc(NCc3c(C(F)(F)F)ccnc3Cl)cc2CN1C1CC1` [Example 24, 7-chloro-5-({[2-chloro-4-(trifluoromethyl)pyridin-3-yl]methyl}amino)-2-cyclopropyl-2,3-dihydro-1H-isoindol-1-one], the pEC50 was greater than 6.30.

As to `CCCCN1Cc2cc(NCc3cnccc3NCc3ccccc3)ccc2C1=O` [Example 42, 5-((4-(benzylamino)pyridin-3-yl)methylamino)-2-butylisoindolin-1-one], the pEC50 is 5.00 to 5.70.

Turning to `CCCCN1Cc2cc(NCc3cnccc3-c3ccc(C(F)(F)F)cc3)ccc2C1=O` [Example 21, 2-butyl-5-((4-(4-(trifluoromethyl)phenyl)pyridin-3-yl)methylamino)-isoindolin-1-one], the pEC50 is greater than 6.30.

As for `CCCCN1Cc2cc(NCc3cccnc3)ccc2C1=O` [Example 22, 2-butyl-5-[(pyridin-3-ylmethyl)amino]-2,3-dihydro-1H-isoindol-1-one], the pEC50 is 5.00 to 5.70.

Regarding `Cc1cc(-c2ccccc2)c(COc2ccc3c(c2)CN(CCOC(F)(F)F)C3=O)c(C)[n+]1[O-]` [Example 44, 2,6-dimethyl-3-((1-oxo-2-(2-(trifluoromethoxy)ethyl)-isoindolin-5-yloxy)-methyl)-4-phenylpyridine 1-oxide], the pEC50 was greater than 6.30.

In the case of `CCCCN1Cc2cc(NCc3c(-c4ccccc4)cc(C)nc3C)ccc2C1=O` [Example 13, 2-butyl-5-((2,6-dimethyl-4-phenylpyridin-3-yl)methylamino)isoindolin-1-one], the pEC50 is greater than 6.30.

As to `CCN1Cc2cc(OCc3c(-c4ccccc4)cc(C)nc3C)ccc2C1=O` [Example 11, 5-(2,6-Dimethyl-4-phenyl-pyridin-3-ylmethoxy)-2-ethyl-2,3-dihydroisoindol-1-one], the pEC50 was greater than 6.30.

For `CCCCN1Cc2cc(OCc3c(-c4ccccc4)ccnc3Cl)ccc2C1=O` [Example 4, 2-butyl-5-((2-chloro-4-phenylpyridin-3-yl)methoxy)isoindolin-1-one], the pEC50 is greater than 6.30.

In the case of `CCCCN1Cc2cc(NCc3c(C(F)(F)F)ccnc3Cl)ccc2C1=O` [Example 17, 2-butyl-5-((2-chloro-4-(trifluoromethyl)pyridin-3-yl)methylamino)-isoindolin-1-one], the pEC50 is greater than 6.30.

For the compound `Cc1cc(-c2ccccc2)c(CNc2cc(Cl)c3c(c2)CN(C2CC2)C3=O)c(C)n1` [Example 23, 7-chloro-2-cyclopropyl-5-{[(2,6-dimethyl-4-phenylpyridin-3-yl)methyl]amino}-2,3-dihydro-1H-isoindol-1-one], the pEC50 is greater than 6.30.

Regarding `CCCCN1Cc2cc(NCc3cnccc3N3CCN(C)CC3)ccc2C1=O` [Example 26, 2-butyl-5-({[4-(4-methylpiperazin-1-yl)pyridin-3-yl]methyl}amino)-2,3-dihydro-1H-isoindol-1-one], the pEC50 was 5.00 to 5.70.

Turning to `CCCN1Cc2cc(OCc3cnccc3NC(=O)OC(C)(C)C)ccc2C1=O` [Example 8, [3-(1-oxo-2-propyl-2,3-dihydro-1H-isoindol-5-yloxymethyl)-pyridin-4-yl]-carbamic acid tert-butyl ester], the pEC50 is 5.00 to 5.70.

Turning to `CCCCN1Cc2cc(NCc3ccc(Cl)nc3OC)ccc2C1=O` [Example 36, 2-butyl-5-{[(6-chloro-2-methoxypyridin-3-yl)methyl]amino}-2,3-dihydro-1H-isoindol-1-one], the pEC50 was 5.70 to 6.30.

On to `CCCCN1Cc2cc(NCc3ccc(Br)nc3Cl)ccc2C1=O` [Example 34, 5-{[(6-bromo-2-chloropyridin-3-yl)methyl]amino}-2-butyl-2,3-dihydro-1H-isoindol-1-one], for which the pEC50 is 5.70 to 6.30.

For the compound `O=C1c2ccc(OCc3cnccc3-c3ccccc3)cc2CN1CCOC(F)(F)F` [Example 7, 5-(4-Phenyl-pyridin-3-ylmethoxy)-2-(2-trifluoromethoxy-ethyl)-2,3-dihydro-isoindol-1-one], the pEC50 was greater than 6.30.

Take `CCCCN1Cc2cc(OCc3c(I)ccnc3Cl)ccc2C1=O` [Example 5, 2-butyl-5-((2-chloro-4-iodopyridin-3-yl)methoxy)isoindolin-1-one]: the pEC50 is greater than 6.30.

On to `Cc1cc(-c2ccccc2)c(COc2ccc3c(c2)CN(CCOC(F)(F)F)C3=O)c(C)n1` [Example 2, 5-((2,6-dimethyl-4-phenylpyridin-3-yl)methoxy)-2-(2-(trifluoromethoxy)ethyl)isoindolin-1-one], for which the pEC50 is greater than 6.30.

Regarding `CCCCN1Cc2cc(NCc3cnccc3-c3ccc(C#N)cc3)ccc2C1=O` [Example 20, 4-(3-((2-butyl-1-oxoisoindolin-5-ylamino)methyl)pyridin-4-yl)benzonitrile], the pEC50 is greater than 6.30.

Take `CCCCN1Cc2cc(NCc3cnccc3Oc3ccccc3)ccc2C1=O` [Example 16, 2-butyl-5-((4-phenoxypyridin-3-yl)methylamino)isoindolin-1-one]: the pEC50 was greater than 6.30.

Consider `COCCN1Cc2cc(NCc3c(C(F)(F)F)ccnc3Cl)cc(C)c2C1=O` [Example 39], for which the pEC50 was 5.70 to 6.30.
